Laboratory results taken from patent US4786643A, “Treatment of migraine, cluster headaches and trigeminal neuralgia” (Beecham Group p.l.c., priority 1985, dated 1988).

What was measured:
Format in all cases: in vivo
[1] = test system: emetic response (cisplatin); assay: Inhibition of Chemotherapy Induced Nausea and Vomiting (cisplatin, ferret); conditions: administered twice, cisplatin 10 mg/kg i.v., 5 hours
Excerpt: 2. Inhibition of Chemotherapy Induced Nausea and Vomiting
Adult male ferrets (initial body weight 1.3-1.8 kg) were individually housed, fed once daily (200 g Chum Puppy Food plus 50 g Lab Diet A) and were supplied with water ad libitum. Additionally, each animal was given 1/2 pint of milk daily during an acclimatization period.
To facilitate intravenous administration of drugs, a chronic indwelling catheter was surgically implanted into the jugular vein using a modification of the technique described by Florczyk and Schurig, 1981 (Pharmacol. Biochem. Behav., 14, 255-257). Prior to surgery each animal was sedated with ketamine hydrochloride (40 mg/animal intramuscularly) and anaesthetised with a halothane-N2 O--O2 mixture. A four day recovery period was allowed before commencement of an experiment.
For each group of animals, a preliminary study was carried out to establish an intravenous dose level of cisplatin which would give a consistent and reproducible emetic response. The appropriate dose of test compound was administered intravenously twice to each animal; 30 minutes before and 45 minutes after dosing with cisplatin. Running controls received vehicle and cisplatin only.
A single emetic response commenced when an animal assumed a characterrc posture with retching and was concluded when either vomitus was expelled or was present in the mouth as evidenced by a chewing movement.
All solutions were prepared in water for injection B. P. Cisplatin was prepared from vials of Neoplatin for injection (Mead Johnson; dose volume of […]).

[2] = test system: Radiation Induced Nausea and Vomiting; assay: Inhibition of Radiation Induced Nausea and Vomiting (X-ray, ferret); conditions: for No. of animals completely protected/No. of animals used: 2 to 4 minutes before irradiation; for Latency period, Group Mean (±s.e.m.): taken as 120 minutes in animals completely protected, vehicle 19.4 (±1.1); for No. of emetic episodes, Group Mean (±s.e.m.): vehicle 28.8 (±1.3)
Excerpt: 3. Inhibition of Radiation Induced Nausea and Vomiting.
Ferrets with surgically implanted indwelling venous cannulae were restrained in a purposely constructed perspex box, and exposed to ionising radiation from an X-ray source. The X-ray source (Machlett, Model OEG-50, Tungsten Anode) was approximately 25 cm from the upper surface of the animal, and was operated at 50 Kv and 20 mA through a 1 mm beryllium window and 0.18 mm aluminium filtration. The whole body of each animal was irradiated for 10.4 minutes at a dose rate of 300 rad/minute. At the completion of irradiation animals were put back in their pens and observed for at least 120 minutes. The time from the start of irradiation to the first emetio episode (latency period), and the number of emetic episodes were recorded. […] The test compound was injected intravenously 2 to 4 minutes before the start of irradiation.

[3] = test system: von Bezold-Jarisch reflex evoked by 5HT; assay: Antagonism of the von Bezold-Jarisch reflex evoked by 5HT in the anaesthetised rat; conditions: iv, anaesthetised male rats, i.v., 5-HT 6-20 μg/kg i.v., heart rate, read-out: ED50 (reduction of the 5HT-evoked response to 50% of the control response)
Procedure: 1. Antagonism of the von Bezold-Jarisch reflex
The compounds were evaluated for antagonism of the von Bezold-Jarisch reflex evoked by 5HT in the anaesthetised rat according to the following method:
Male rats 250-350 g, were anaesthetised with urethane (1.25 g/kg intraperitoneally) and blood pressure and heart rate recorded as described by Fozard J. R. et al., J. Cardiovasc. Pharmacol. 2, 229-245 (1980). A submaximal dose of 5-HT (6-20 μg/kg) was given repeatedly by the intravenous route and changes in heart rate quantified. Test Compounds were given intravenously and the concentration required to reduce the 5HT-evoked response to 50% of the control response (ED50) was then determined.

[4] = test system: arrhythmias after coronary ligation; assay: Antiarrhythmic Activity, dog coronary ligation model; conditions: for reduction of ectopic beats on day 2 (max. effects) / antagonism of arrhythmias on day 2 (max. effects): 48 h after coronary ligation; for reduction of ectopic beats on day 1 (max. effects) / antagonism of arrhythmias on day 2 (max. effects): 2. dog
Procedure: 4. Antiarrhythmic Activity
The compound of Example 9 was tested for antiarrhythmic activity in the dog coronary ligation model (method: Harris, A., Circulation Res. 1, 1318-1328, 1950).

SMILES: COc1cc(N)c(Cl)cc1C(=O)NC1CCN2CCCC1C2 (racemic) [Example 9, (±)4-amino-5-chloro-2-methoxy-N-(4[1-azabicyclo-3,3,1]-nonyl])-benzamide]
- No. of animals completely protected/No. of animals used ([1]; 0.65 mg/kg i.v.): 1/6
- No. of animals completely protected/No. of animals used ([1]; 1.25 mg/kg i.v.): 4/6
- No. of animals completely protected/No. of animals used ([1]; 2.5 mg/kg i.v.): 3/6
- No. of animals completely protected/No. of animals used ([2]; 0.25 mg/kg i.v.): 1/4
- Latency period, Group Mean (±s.e.m.) ([2]; 0.25 mg/kg i.v., P < 0.05): 64.0 (±18.7)
- No. of emetic episodes, Group Mean (±s.e.m.) ([2]; 0.25 mg/kg i.v., P < 0.05): 7.8 (±3.3)
- No. of animals completely protected/No. of animals used ([2]; 1.25 mg/kg i.v.): 2/5
- Latency period, Group Mean (±s.e.m.) ([2]; 1.25 mg/kg i.v., P < 0.01): 79.2 (±16.7)
- No. of emetic episodes, Group Mean (±s.e.m.) ([2]; 1.25 mg/kg i.v., P < 0.01): 1.2 (±0.6)
- ED50 [3]: 3.3 µg/kg
- effect on day 1-arrhythmias (max. effects) ([4]; 1. dog, 24 h after coronary ligation, 0.5-3.0 mg/kg): no effect
- reduction of ectopic beats on day 2 (max. effects) ([4]; 1. dog, 2.0 mg/kg): 41%
- reduction of ectopic beats on day 2 (max. effects) ([4]; 1. dog, 3.0 mg/kg): 76%
- reduction of ectopic beats on day 1 (max. effects) ([4]; 24 h after coronary ligation, 20 mg/kg (so in the source)): 69%
- reduction of ectopic beats on day 1 (max. effects) ([4]; 24 h after coronary ligation, 1,0 mg/kg): 63%
- reduction of ectopic beats on day 1 (max. effects) ([4]; 24 h after coronary ligation, 3,0 mg/kg): 82%
- antagonism of arrhythmias on day 2 (max. effects) ([4]; 0.5 mg/kg): 89%
- antagonism of arrhythmias on day 2 (max. effects) ([4]; 1.0 mg/kg): 100%
